Measured values taken from PMC11003488 (Journal of Enzyme Inhibition and Medicinal Chemistry, 2023).
Where two headings read alike, the source gives them in different places.

What was measured:
HL-60(TB) = test: cells; assay type: cell-based; conditions: Homo sapiens; for GI50: HL-60; for inhibition at 10 µM: HL-60, read-out: percent growth inhibition
RPMI-8226 = test: NCI-60 SRB growth inhibition, one-dose and five-dose; assay type: cell-based; conditions: Homo sapiens; for GI50: RPMI-8226; for inhibition at 10 µM: RPMI-8226, read-out: percent growth inhibition
HOP-62 = test: as above; assay type: cell-based; conditions: Homo sapiens; for GI50: HOP-62; for inhibition at 10 µM: HOP-62, read-out: percent growth inhibition
NCI-H226 = test: as above; assay type: cell-based; conditions: Homo sapiens; for GI50: NCI-H226; for inhibition at 10 µM: NCI-H226, read-out: percent growth inhibition
HCC-2998 = test: as above; assay type: cell-based; conditions: Homo sapiens; for GI50: HCC 2998; for inhibition at 10 µM: HCC 2998, read-out: percent growth inhibition
HCT-116 = test: as above; assay type: cell-based; conditions: Homo sapiens; for GI50: HCT-116, HCT-116, five-dose screening; for inhibition at 10 µM: HCT-116, read-out: percent growth inhibition
KM12 = test: as above; assay type: cell-based; conditions: Homo sapiens; for GI50: KM12; for inhibition at 10 µM: KM12, read-out: percent growth inhibition
SF-539 = test: as above; assay type: cell-based; conditions: Homo sapiens; for GI50: SF-539; for inhibition at 10 µM: SF-539, read-out: percent growth inhibition
MDA-MB-435 = test: as above; assay type: cell-based; conditions: Homo sapiens; for GI50: MDA-MB-435; for inhibition at 10 µM: MDA-MB-435, read-out: percent growth inhibition
UACC-62 = test: as above; assay type: cell-based; conditions: Homo sapiens; for GI50: UACC-62; for inhibition at 10 µM: UACC-62, read-out: percent growth inhibition
IGROV1 = test: as above; assay type: cell-based; conditions: Homo sapiens; for GI50: IGROV-1; for inhibition at 10 µM: IGROV-1, read-out: percent growth inhibition
OVCAR-8 = test: as above; assay type: cell-based; conditions: Homo sapiens; for inhibition at 10 µM: OVCAR-8, read-out: percent growth inhibition
ACHN = test: as above; assay type: cell-based; conditions: Homo sapiens; for inhibition at 10 µM: read-out: percent growth inhibition
SN12C = test: as above; assay type: cell-based; conditions: Homo sapiens; for inhibition at 10 µM: read-out: percent growth inhibition
TK-10 = test: as above; assay type: cell-based; conditions: Homo sapiens; for GI50: TK-10; for inhibition at 10 µM: TK-10, read-out: percent growth inhibition
UO-31 = test: as above; assay type: cell-based; conditions: Homo sapiens; for GI50: UO-31
PC-3 = test: as above; assay type: cell-based; conditions: Homo sapiens; for GI50: PC-3; for inhibition at 10 µM: PC-3, read-out: percent growth inhibition
MDA-MB-231/ATCC = test: as above; assay type: cell-based; conditions: Homo sapiens; for GI50: MDA-MB-231
HS 578 T = test: as above; assay type: cell-based; conditions: Homo sapiens; for inhibition at 10 µM: read-out: percent growth inhibition
Leukaemia cell lines = test: NCI-60 SRB growth inhibition, subpanel; assay type: cell-based, human; conditions: for GI50: Homo sapiens
NSCLC cell lines = test: NCI-60 SRB growth inhibition, subpanel; assay type: cell-based, human; conditions: for GI50: Homo sapiens
Colon cancer cell lines = test: NCI-60 SRB growth inhibition, subpanel; assay type: cell-based, human; conditions: for GI50: Homo sapiens
CNS cancer cell lines = test: NCI-60 SRB growth inhibition, subpanel; assay type: cell-based, human; conditions: for GI50: Homo sapiens
Melanoma cell lines = test: NCI-60 SRB growth inhibition, subpanel; assay type: cell-based, human; conditions: for GI50: Homo sapiens
[1] = tested on: Ovarian cancer cell lines; test: NCI-60 SRB growth inhibition, subpanel; assay type: cell-based, human; conditions: for GI50: Homo sapiens
Renal cancer cell lines = test: NCI-60 SRB growth inhibition, subpanel; assay type: cell-based, human; conditions: for GI50: Homo sapiens
[2] = tested on: Prostate cancer cell lines; test: NCI-60 SRB growth inhibition, subpanel; assay type: cell-based, human; conditions: for GI50: Homo sapiens
Breast cancer cell lines = test: NCI-60 SRB growth inhibition, subpanel; assay type: cell-based, human; conditions: for GI50: Homo sapiens
[3] = Cytotoxicity towards normal fibroblasts, safety index; assay type: cell-based, human; conditions: human, WI-38 normal fibroblast cells
[4] = tested on: WI-38 normal human fibroblast cells; test: as above; assay type: cell-based; conditions: WI-38 versus cancer cell lines
Human VEGFR-2 = Human VEGFR-2 (Homo sapiens, UniProt P35968); test: VEGFR-2 inhibition assay; assay type: biochemical
Sequence of Human VEGFR-2 (P35968 20-1356): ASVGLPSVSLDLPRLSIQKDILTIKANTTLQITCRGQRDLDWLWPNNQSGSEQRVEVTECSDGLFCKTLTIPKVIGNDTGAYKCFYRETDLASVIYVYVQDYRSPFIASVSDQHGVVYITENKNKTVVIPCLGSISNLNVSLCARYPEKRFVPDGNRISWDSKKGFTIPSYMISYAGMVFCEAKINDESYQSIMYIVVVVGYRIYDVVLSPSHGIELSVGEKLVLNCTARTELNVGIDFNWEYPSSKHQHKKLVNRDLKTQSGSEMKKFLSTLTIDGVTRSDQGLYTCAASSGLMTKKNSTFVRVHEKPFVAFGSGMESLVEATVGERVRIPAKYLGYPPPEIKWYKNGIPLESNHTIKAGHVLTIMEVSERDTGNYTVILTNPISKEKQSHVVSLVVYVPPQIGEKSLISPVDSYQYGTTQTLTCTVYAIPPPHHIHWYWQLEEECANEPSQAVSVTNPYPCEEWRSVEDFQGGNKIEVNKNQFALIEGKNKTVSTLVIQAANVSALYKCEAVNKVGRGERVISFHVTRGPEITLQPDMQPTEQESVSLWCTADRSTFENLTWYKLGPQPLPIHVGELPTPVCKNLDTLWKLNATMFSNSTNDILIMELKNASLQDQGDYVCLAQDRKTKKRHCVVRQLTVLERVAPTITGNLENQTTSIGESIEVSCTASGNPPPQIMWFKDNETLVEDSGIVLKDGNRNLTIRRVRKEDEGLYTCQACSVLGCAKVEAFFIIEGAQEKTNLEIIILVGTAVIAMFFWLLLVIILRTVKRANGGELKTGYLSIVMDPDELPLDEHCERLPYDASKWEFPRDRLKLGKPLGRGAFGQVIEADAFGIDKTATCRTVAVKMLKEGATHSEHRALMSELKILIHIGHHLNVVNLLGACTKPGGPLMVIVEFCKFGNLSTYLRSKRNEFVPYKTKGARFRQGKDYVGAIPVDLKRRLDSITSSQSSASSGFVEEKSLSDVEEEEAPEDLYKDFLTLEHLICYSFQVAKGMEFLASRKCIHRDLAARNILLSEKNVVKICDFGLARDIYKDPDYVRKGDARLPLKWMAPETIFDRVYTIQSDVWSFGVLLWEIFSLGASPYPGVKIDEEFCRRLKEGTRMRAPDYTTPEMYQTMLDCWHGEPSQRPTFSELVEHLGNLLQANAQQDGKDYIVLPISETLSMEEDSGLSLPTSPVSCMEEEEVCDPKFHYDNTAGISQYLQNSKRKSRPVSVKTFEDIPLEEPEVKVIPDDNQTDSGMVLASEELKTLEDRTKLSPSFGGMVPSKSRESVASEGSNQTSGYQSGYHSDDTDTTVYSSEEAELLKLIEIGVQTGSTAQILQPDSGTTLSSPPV

COc1ccc(CNc2cccc(C(=O)/C=C/c3cccnc3)c2)cc1OC [Compound 5c, (E)-1–(3-((3,4-dimethoxybenzyl)amino)phenyl)-3-(pyridin-3-yl)prop-2-en-1-one]
GI50 (HL-60(TB)): 2.78 µM
inhibition at 10 µM (HL-60(TB)): 59.6%
GI50 (RPMI-8226): 2.14 µM
inhibition at 10 µM (RPMI-8226): 99.7%
GI50 (HOP-62): 12.2 µM
inhibition at 10 µM (HOP-62): 30%
GI50 (NCI-H226): 14.7 µM
inhibition at 10 µM (NCI-H226): 19.7%
GI50 (HCC-2998): 2.04 µM
inhibition at 10 µM (HCC-2998): 75.8%
GI50 (HCT-116): 1.94 µM
inhibition at 10 µM (HCT-116): 183%
GI50 (KM12): 1.99 µM
inhibition at 10 µM (KM12): 165%
GI50 (SF-539): 12.4 µM
inhibition at 10 µM (SF-539): 162%
GI50 (MDA-MB-435): 2.46 µM
inhibition at 10 µM (MDA-MB-435): 84.7%
GI50 (UACC-62): 10.5 µM
inhibition at 10 µM (UACC-62): 61.1%
GI50 (IGROV1): 11 µM
inhibition at 10 µM (IGROV1): 84.3%
GI50 (OVCAR-8; OVCAR-8): 4.01 µM
inhibition at 10 µM (OVCAR-8): 85.1%
GI50 (ACHN): 3.95 µM
inhibition at 10 µM (ACHN): 132%
GI50 (SN12C): 11.8 µM
inhibition at 10 µM (SN12C): 83.7%
GI50 (TK-10): 8.14 µM
inhibition at 10 µM (TK-10): 23.9%
GI50 (UO-31): 10.5 µM
inhibition at 10 µM (UO-31; UO-31, read-out: percent growth inhibition): 65%
GI50 (PC-3): 8 µM
inhibition at 10 µM (PC-3): 89%
GI50 (MDA-MB-231/ATCC): 2.96 µM
inhibition at 10 µM (MDA-MB-231/ATCC; MDA-MB-231, read-out: percent growth inhibition): 94.5%
GI50 (HS 578 T): 14.3 µM
inhibition at 10 µM (HS 578 T): 98.3%
GI50 (Leukaemia cell lines; read-out: GI50 MG-MID): 2.6 µM
GI50 (NSCLC cell lines; read-out: GI50 MG-MID): 11.2 µM
GI50 (Colon cancer cell lines; read-out: GI50 MG-MID): 4.45 µM
GI50 (CNS cancer cell lines; read-out: GI50 MG-MID): 9.11 µM
GI50 (Melanoma cell lines; read-out: GI50 MG-MID): 7.75 µM
GI50 ([1]; read-out: GI50 MG-MID): 8.65 µM
GI50 (Renal cancer cell lines; read-out: GI50 MG-MID): 9.08 µM
GI50 ([2]; read-out: GI50 MG-MID): 10.2 µM
GI50 (Breast cancer cell lines; read-out: GI50 MG-MID): 5.96 µM
GI50 at 48 h [3]: > 100 µM
Safety index [4]: >1
IC50 (Human VEGFR-2): 0.96 ± 0.012 µM

O=C(/C=C/c1cccnc1)c1cccc(NCc2csc3ccccc23)c1 [Compound 5d, (E)-1–(3-((benzo[b]thiophen-3-ylmethyl)amino)phenyl)-3-(pyridin-3-yl)prop-2-en-1-one]
GI50 (HL-60(TB)): 2.73 µM
inhibition at 10 µM (HL-60(TB)): 135%
GI50 (RPMI-8226): 1.99 µM
inhibition at 10 µM (RPMI-8226): 119%
GI50 (HOP-62): 10.2 µM
inhibition at 10 µM (HOP-62): 65.2%
GI50 (NCI-H226): 3.43 µM
inhibition at 10 µM (NCI-H226): 111%
GI50 (HCC-2998): 3.66 µM
inhibition at 10 µM (HCC-2998): 188%
GI50 (HCT-116): 1.82 µM
inhibition at 10 µM (HCT-116): 195%
GI50 (KM12): 3.58 µM
inhibition at 10 µM (KM12): 158%
GI50 (SF-539): 6.15 µM
inhibition at 10 µM (SF-539): 171%
GI50 (MDA-MB-435): 2.55 µM
inhibition at 10 µM (MDA-MB-435): 121%
GI50 (UACC-62): 3.75 µM
inhibition at 10 µM (UACC-62): 151%
GI50 (IGROV1): 3.32 µM
inhibition at 10 µM (IGROV1): 108%
inhibition at 10 µM (OVCAR-8): 119%
GI50 (ACHN): 2.82 µM
inhibition at 10 µM (ACHN): 155%
GI50 (SN12C): 3.02 µM
inhibition at 10 µM (SN12C): 128%
GI50 (TK-10): 6.18 µM
inhibition at 10 µM (TK-10): 60%
GI50 (UO-31): 4.94 µM
GI50 (PC-3): 3.76 µM
inhibition at 10 µM (PC-3): 99.2%
GI50 (MDA-MB-231/ATCC): 2.67 µM
GI50 (HS 578 T): 4.49 µM
inhibition at 10 µM (HS 578 T): 76.9%
GI50 (Leukaemia cell lines; read-out: GI50 MG-MID): 2.76 µM
GI50 (Leukaemia cell lines; read-out: MG-MID GI50): 2.76 µM
SI (Selectivity Index) (Leukaemia cell lines; full panel MG-MID / leukaemia subpanel MG-MID): 1.72
GI50 (NSCLC cell lines; read-out: GI50 MG-MID): 6.83 µM
GI50 (NSCLC cell lines; read-out: MG-MID GI50): 6.83 µM
SI (Selectivity Index) (NSCLC cell lines; full panel MG-MID / NSCLC subpanel MG-MID): 0.69
GI50 (Colon cancer cell lines; read-out: GI50 MG-MID): 3.93 µM
GI50 (Colon cancer cell lines; read-out: MG-MID GI50): 3.93 µM
SI (Selectivity Index) (Colon cancer cell lines; full panel MG-MID / Colon Cancer subpanel MG-MID): 1.21
GI50 (CNS cancer cell lines; read-out: GI50 MG-MID): 5.4 µM
GI50 (CNS cancer cell lines; read-out: MG-MID GI50): 5.4 µM
SI (Selectivity Index) (CNS cancer cell lines; full panel MG-MID / CNS Cancer subpanel MG-MID): 0.88
GI50 (Melanoma cell lines; read-out: GI50 MG-MID): 3.76 µM
GI50 (Melanoma cell lines; read-out: MG-MID GI50): 3.76 µM
SI (Selectivity Index) (Melanoma cell lines; full panel MG-MID / Melanoma subpanel MG-MID): 1.26
GI50 ([1]; read-out: GI50 MG-MID): 5.3 µM
GI50 ([1]; read-out: MG-MID GI50): 5.3 µM
SI (Selectivity Index) ([1]; full panel MG-MID / Ovarian Cancer subpanel MG-MID): 0.89
GI50 (Renal cancer cell lines; read-out: GI50 MG-MID): 6.46 µM
GI50 (Renal cancer cell lines; read-out: MG-MID GI50): 6.46 µM
SI (Selectivity Index) (Renal cancer cell lines; full panel MG-MID / Renal Cancer subpanel MG-MID): 0.73
GI50 ([2]; read-out: GI50 MG-MID): 5.56 µM
GI50 ([2]; read-out: MG-MID GI50): 5.56 µM
SI (Selectivity Index) ([2]; full panel MG-MID / Prostatic Cancer subpanel MG-MID): 0.85
GI50 (Breast cancer cell lines; read-out: GI50 MG-MID): 2.69 µM
GI50 (Breast cancer cell lines; read-out: MG-MID GI50): 2.69 µM
SI (Selectivity Index) (Breast cancer cell lines; full panel MG-MID / Breast Cancer subpanel MG-MID): 1.76
GI50 at 48 h [3]: > 100 µM
Safety index [4]: >1
IC50 (Human VEGFR-2): 1.46 ± 0.009 µM
